Measured values reported in patent US20080044436A1, “Method for Screening and Compositions for Treating Cancers” (priority 2004, published 2008).

Tests used:
T47-D cells = assay: T47-D cell proliferation (cell counts) with control or TReP-132 siRNA and progesterone; format: cell-based, human; conditions: T47-D transfected control cells, 30 nM progesterone, 4 to 6 days of treatment
Method: FIG. 3: Induction of TReP-132 by progesterone and suppression of progesterone inhibition of T47-D cell proliferation following TReP-132 knockdown by using small interfering RNA (“siRNA”). (T47-D cells were treated for the indicated times with 30 nM progesterone). Experiments were carried out in triplicate, and values represent the mean ±SD of a representative experiment.
FIG. 3B: Cells transfected with control siRNA or TReP-132 siRNA (400 ng) at 0 and 3 days were recovered at days 2, 4 or 6 and counted. (ns: not significant −*, p<0.05; **, […]; ***, p<0.001).
The sense 5′-[…]-3′ and the antisense 5′-[…]-3′ oligonucleotides were synthesized (Eurogentec) and used to generate double-stranded siRNA specific for TReP-132 (21 bp corresponding to amino acids 861-881 […] the initiation codon of the human TReP-132 gene). […] Transfection was carried out by using the GeneSilencer reagent (Gene Therapy Systems, San Diego, USA) as directed by the manufacturer. Transfection efficiency was verified by FACS analysis (Fluorescence-Activated Cell Sorting) (see below). […] Statistical analyses were carried out with the nonparametric Kruskal-Wallis test.

p21 promoter = assay: Luciferase reporter assay in T47-D cells, p21 promoter; format: cell-based, human; conditions: 30 nM progesterone for 34 hours or TReP-132 expression vector
Method: (§1) FIGS. 14A and 14B: T47-D cells were cotransfected with reporter constructs containing the p21 (FIG. 14A) or p27 (FIG. 14B) promoter. Twelve hours post-transfection, the cells were incubated with 30 nM progesterone or ethanol for 34 hours. The cell lysates were then assayed for luciferase activity. Luciferase activity of the −93p21 Luc and −549p27 Luc constructs represent level 1. Arrows indicate transcription initiation sites.
(§2) The pGL2 and pGL3 reporter constructs (100 ng) were cotransfected with the indicated amounts of expression vectors and 10 ng of the control plasmid pRL.Null. The amount of plasmid was then normalized with the empty vector pcDNA3. After 12 hours of transfection, the medium was changed and cells were incubated for an additional 10 and 34 hours, respectively. During this period, T47-D cells were cultured in the presence and absence of progesterone (30 nM). The cells were then harvested and cell lysates (20 μl) were assayed for luciferase activity (Dual Luciférase™ Reporter Assay System, Promega, Madison, Wis., USA) in a Berthold LUMAT LB9501 luminometer. The transfections were performed in triplicate and each experiment was repeated at least three times.

p27 promoter = assay: Luciferase reporter assay in T47-D cells, p27 promoter; format: cell-based, human; conditions: 30 nM progesterone for 34 hours or TReP-132 expression vector
Method: as §1, §2

[1] = tested on: proximal Sp1 response element of the p21 and p27 promoters; assay: Chromatin immunoprecipitation with anti-TReP-132 antibody in T47-D cells; format: cell-based, human; conditions: DNA from progesterone-treated vs untreated T47-D cells
Method: FIG. 14C: Chromatin was from T47-D cells treated or not with […] progesterone. IPs were carried out with anti-TReP-132 antibodies ([…]). Controls were DNA-free PCR products (column 1, H2O), PCR products of unprecipitated genomic DNA (columns 2 and 3, input), immunoprecipitations with no antibody (columns 4 and 5, no Ab) or with irrelevant antibody (columns 6 and 7, anti-HA). The extracted DNA was amplified using the same primers as in FIG. 13C.
HTO cells incubated in the presence of Dox or T47-D cells were grown to 70% confluence in petri dishes (150 mm diameter). For HTO cells, doxycycline was removed from half of the dishes 48 hours before lysis. T47-D cells were incubated with 30 nM progesterone or with ethanol containing 0.2% BSA-RPMI for 2.5 hours before lysis. Cell lysates were then sonicated on ice, 15 times for 15 seconds at 45 second intervals. A volume of lysate corresponding to 4×10^6 cells was immunoprecipitated by using 4 μg of antibody (indicated earlier) and an anti-HA antibody as negative control. The same volume was set aside for later purification of genomic DNA. […]

ER = assay: GST pull-down, TReP-132 and ER; format: binding; conditions: GST pull-down with 35S-ER
Method: GST-TReP-132 wt was analyzed in terms of the interaction with the ^35[S]-ER, as described previously.
In order to evaluate the interaction of TReP-132, Sp1, ER and PR, the wt and mutant GST-TReP-132 fusion proteins were expressed, then immobilized on glutathione-Sepharose as described (Frangioni and Neel, 1993; Monte et al., 1998). The ^35S-[Sp1], ^35S-[ER] and ^35S-[PR-B] proteins were synthesized in vitro using a rabbit reticulocyte lysate and T7 RNA polymerase system as directed by the manufacturer (Promega Corporation, Madison, Wis.). Proteins which bound, then detached from the Sepharose after being heated to boiling in SDS buffer were then separated on a 10% SDS-PAGE gel. The gels were stained with Coomassie blue, dried and autoradiographed.

p21^CIP1/WAF1 gene = assay: RNase protection assay of CDKI transcription in HeLa cells, p21; format: cell-based, human; conditions: HeLa Tet-off cells, doxycycline removed
Method: All radiolabelled probes specific for the p130, Rb, p107, p53, p57, p27, p21, p19, p18, p14/p15, L32, and GAPDH genes were labelled with [α-^32P]UTP-ribonucleotide (PerkinElmer Life Sciences, Woodbridge, Ontario, CA) in the conditions specified in the “hCC-2 Muti-Probe Template Set” kit (Pharmingen, Mississauga, Ontario, CA). Ribonuclease protection experiments were carried out with the Ribonuclease III Protection kit (Ambion, Austin, Tex.). Ten micrograms of HeLa cell RNA were hybridized with the radiolabelled probe mixture at 56° C. and then digested for 45 min at 30° C. in RNase A/RNase T1 solution diluted 1:1000 in digestion buffer. The samples were separated on a polyacrylamide-6% urea gel.

Molecule | cell proliferation (T47-D cells) | p21 promoter activation (p21 promoter) | p27 promoter activation (p27 promoter) | TReP-132 binding to proximal Sp1 response element of p21 and p27 promoters [1] | interaction with ER (ER) | p21 gene transcription (p21^CIP1/WAF1 gene)
CC(=O)[C@H]1CC[C@H]2[C@@H]3CCC4=CC(=O)CC[C@]4(C)[C@H]3CC[C@]12C [progesterone, reference compound] | inhibited cell proliferation | activated the two promoters | activated the two promoters | much more pronounced | – | –
TReP-132: Transcriptional Regulating Protein of 132 kDa, polypeptide comprising SEQ ID NO: 2; here expressed in cells from vectors (protein) MGDQQLYKTNHVAHGSENLFYQQPPLGVHSGLNHNYGNAVTGGGMDAPQASPISPHFPQDTRDGLGLPVGSKNLGQMDTSRQGGWGSHAGPGNHVQLRGNLANSNMMWGAPAQAEPTDGYQYTYSQASEIRTQKLTSGVLHKLDSFTQVFANQNLRIQVNNMAQVLHTQSAVMDGAPDSALRQLLSQKPMEPPAPAIPSRYQQVPQQPHPGFTGGLSKPALQVGQHPTQGHLYYDYQQPLAQVPVQGGQPLQAPQMLSQHMQQMQQHQYYPPQQQQQAGQQRISMQEIQTQPQQIRPSQPQPPPQQQQPQQLQLQQRQGSMQIPQYYQPQPMMQHLQEQQQQQMHLQPPSYHRDPHQYTPEQAHTVQLIPLGSMSQYYYQEPQQPYSHPLYQQSHLSQHQQREDSQLKTYSSDRQAQAMLSSHGDLGPPDTGMGDPASSDLTRVSSTLPHRPLLSPSGIHLNNMGPQHQQLSPSAMWPQMHLPDGRAQPGSPESSGQPKGAFGEQFDAKNKLTCSICLKEFKNLPALNGHMRSHGGMRASPNLKQEEGEKVLPPQPQPPLPPPPPPPPPPQLPPEAESLTPMVMPVSVPVKLLPPKPSSQGFTNSTVAAPSARDKPASSMSDDEMPVLEIPRKHQPSVPKAEEPLKTVQEKKKFRHRPEPLFIPPPPSYNPNPAASYSGATLYQSQLRSPRVLGDHLLLDPTHELPPYTPPPMLSPVRQGSGLFSNVLISGHGPGAHPQLPLTPLTPTPRVLLCRSNSIDGSNVTVTPGPGEQTVDVEPRINIGLRFQAEIPELQDISALAQDTHKATLVWKPWPELENHDLQQRVENLLNLCCSSALPGGGTNSEFALHSLFEAKGDVMVALEMLLLRKPVRLKCHPLANYHYAGSDKWTSLERKLFNKALATYSKDFIFVQKMVKSKTVAQCVEYYYTWKKIMRLGRKHRTRLAEIIDDCVTSEEEEELEEEEEEDPEEDRKSTKEEESEVPKSPEPPPVPVLAPTEGPPLQALGQPSGSFICEMPNCGAVFSSRQALNGHARIHGGTNQVTKARGAIPSGKQKPGGTQSGYCSVKSSPSHSTTSGETDPTTIFPCKECGKVFFKIKSRNAHMKTHRQQEEQQRQKAQKAAFAAEMAATIERTTGPVGAPGLLPLDQLSLIKPIKDVDILDDDVVQQLGGVMEEAEVVDTDLLLDDQDSVLLQGDAEL | – | activated the two promoters | activated the two promoters | – | interact | induction
